US11597724B2, “Herbicidally active 3-phenylisoxazoline-5-carboxamides of tetrahydro and dihydrofuran carboxylic acids and esters” (Bayer Aktiengesellschaft, priority 2017, dated 2023)

How the values were obtained:
Assay type in all cases: in vivo
Lolium rigidum = assay: Post-emergence herbicidal activity against LOLRI; conditions: Lolium rigidum, 504 h, dosage 320 g/ha, rated about 3 weeks after treatment
Procedure: (§1) LOLRI: Lolium rigidum PHBPU: Pharbitis purpurea 2. Post-Emergence Herbicidal Action and Crop Plant Compatibility Seeds of monocotyledonous and dicotyledonous weeds and crop plants are placed in sandy loam in plastic or wood-fiber pots, covered with soil and cultivated in a greenhouse under controlled growth conditions. 2 to 3 weeks after sowing, the test plants are treated at the one-leaf stage. The compounds of the invention, formulated in the form of wettable powders (WP) or as emulsion concentrates (EC), are then sprayed onto the green parts of the plants as aqueous suspension or emulsion with addition of 0.5% additive at a water application rate of 600 l/ha (converted). After the test plants had been kept in the greenhouse under optimum growth conditions for about 3 weeks, the activity of the preparations is rated visually in comparison to untreated controls. For example, 100% activity=the plants have died, 0% activity=like control plants.

Setaria viridis = assay: Post-emergence herbicidal activity against SETVI; conditions: Setaria viridis, 504 h, dosage 320 g/ha, rated about 3 weeks after treatment
Method in brief: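 Greenhouse weeds in sandy loam were sprayed at the one-leaf stage, 2–3 weeks after sowing, with WP or EC formulations plus 0.5% additive at 600 l/ha water. About 3 weeks later, damage was rated visually against untreated controls, where 100% means plants dead and 0% means like control.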

Echinochloa crus-galli = assay: Post-emergence herbicidal activity against ECHCG; conditions: Echinochloa crus-galli, 504 h, dosage 320 g/ha, rated about 3 weeks after treatment
Method in brief: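 Greenhouse pot plants sprayed post-emergence at one-leaf stage (2-3 weeks after sowing) with WP or EC formulations, 0.5% additive, 600 l/ha water. Visual rating about 3 weeks later versus untreated controls: 100% = plants dead, 0% = like control.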

Viola tricolor = assay: Post-emergence herbicidal activity against VIOTR; conditions: Viola tricolor, 504 h, dosage 320 g/ha, rated about 3 weeks after treatment
Method in brief: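 Greenhouse plants in sandy loam treated at one-leaf stage, 2 to 3 weeks after sowing, by spraying WP or EC formulations with 0.5% additive at 600 l/ha water. Activity rated visually after about 3 weeks versus untreated controls, 100% = plants dead, 0% = like control.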

Abutilon theophrasti = assay: Post-emergence herbicidal activity against ABUTH; conditions: Abutilon theophrasti, 504 h, dosage 320 g/ha, rated about 3 weeks after treatment
Method in brief: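 Greenhouse-grown plants treated at one-leaf stage, 2 to 3 weeks after sowing, with WP or EC formulations sprayed as aqueous suspension/emulsion plus 0.5% additive at 600 l/ha. Activity rated visually about 3 weeks later versus untreated controls (100% = plants dead, 0% = like control).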

Hordeum murinum = assay: Post-emergence herbicidal activity against HORMU; conditions: Hordeum murinum, 504 h, dosage 320 g/ha
Procedure: as §1, with “ECHCG: Echinochloa crus-galli HORMU: Hordeum murinum” for “LOLRI: Lolium rigidum PHBPU: Pharbitis purpurea”

Polygonum convolvulus = assay: Pre-emergence herbicidal activity against POLCO; conditions: Fallopia convolvulus, 504 h, dosage 80 g/ha
From the text: 1. Pre-Emergence Herbicidal Action and Crop Plant Compatibility Seeds of monocotyledonous and dicotyledonous weed plants and crop plants are placed in plastic or wood fiber pots and covered with soil. The compounds of the invention, formulated in the form of wettable powders (WP) or as emulsion concentrates (EC), are then applied onto the surface of the covering soil as aqueous suspension or emulsion with addition of 0.5% additive at a water application rate of 600 l/ha (converted). After the treatment, the pots are placed in a greenhouse and kept under good growth conditions for the trial plants. After about 3 weeks, the effect of the preparations is scored visually in comparison with untreated controls as percentages. For example, 100% activity=the plants have died, 0% activity=like control plants. POLCO: Polygonum convolvulus SETVI: Setaria viridis

SMILES | pest or weed control at 320 g/ha (Lolium rigidum) [%] | pest or weed control at 320 g/ha (Setaria viridis) [%] | pest or weed control at 320 g/ha (Echinochloa crus-galli) [%] | pest or weed control at 320 g/ha (Viola tricolor) [%] | pest or weed control at 320 g/ha (Abutilon theophrasti) [%] | pest or weed control at 320 g/ha (Hordeum murinum) [%] | pest or weed control at 80 g/ha (Polygonum convolvulus) [%]
COC(=O)[C@H]1C[C@H](NC(=O)[C@@]2(C)CC(c3cc(F)cc(F)c3)=NO2)CO1 (mixture of isomers) [I-55, methyl trans-4-[[(5R)-3-(3,5-difluorophenyl)-5-methyl-4H-isoxazole-5-carbonyl]amino]tetrahydrofuran-2-carboxylate] | 90 | 90 | 90 | 90 | 90 | 100 | –
C=C[C@]1(C(=O)N[C@@H]2CO[C@@H](C(=O)OC)C2)CC(c2cc(F)cc(F)c2)=NO1 (mixture of isomers) [I-56, methyl trans-4-[[(5S)-3-(3,5-difluorophenyl)-5-vinyl-4H-isoxazole-5-carbonyl]amino]tetrahydrofuran-2-carboxylate] | 90 | 90 | 90 | 90 | 90 | 90 | –
C=CC1(C(=O)N[C@H]2CO[C@@H](C(=O)OC)C2)CC(c2cc(Cl)cc(Cl)c2)=NO1 (relative stereo) [I-03, methyl cis-4-[[3-(3,5-dichlorophenyl)-5-vinyl-4H-isoxazole-5-carbonyl]amino]tetrahydrofuran-2-carboxylate] | – | 80 | 80 | – | – | – | 80
COC(=O)[C@H]1C[C@@H](NC(=O)C2(C)CC(c3cc(C)cc(Br)c3)=NO2)CO1 (relative stereo) [I-04, methyl cis-4-[[3-(3-bromo-5-methylphenyl)-5-methyl-4H-isoxazole-5-carbonyl]amino]tetrahydrofuran-2-carboxylate] | – | 80 | 90 | 80 | – | – | 90
C=CC1(C(=O)N[C@H]2CO[C@@H](C(=O)OC)C2)CC(c2cccc(F)c2)=NO1 (relative stereo) [I-07, methyl cis-4-[[3-(3-fluorophenyl)-5-vinyl-4H-isoxazole-5-carbonyl]amino]tetrahydrofuran-2-carboxylate] | – | 80 | 80 | – | – | – | 80
COC(=O)[C@H]1C[C@@H](NC(=O)C2(OC)CC(c3cc(C)cc(Br)c3)=NO2)CO1 (relative stereo) [I-08, methyl cis-4-[[3-(3-bromo-5-methylphenyl)-5-methoxy-4H-isoxazole-5-carbonyl]amino]tetrahydrofuran-2-carboxylate] | – | 80 | 90 | 80 | – | – | 80
COC(=O)[C@H]1C[C@@H](NC(=O)C2(OC)CC(c3ccccc3)=NO2)CO1 (relative stereo) [I-14, methyl cis-4-[(5-methoxy-3-phenyl-4H-isoxazole-5-carbonyl)amino]tetrahydrofuran-2-carboxylate] | – | 80 | 80 | – | – | – | –
COC(=O)C1=C[C@H](NC(=O)C2(C)CC(c3cccc(F)c3)=NO2)CO1 (stereo partly drawn) [I-39, methyl (3S)-3-[[3-(3-fluorophenyl)-5-methyl-4H-isoxazole-5-carbonyl]amino]-2,3-dihydrofuran-5-carboxylate] | 100 | 90 | 100 | 80 | 80 | 100 | 80
COC(=O)[C@@]1(OC)C[C@@H](NC(=O)C2(C)CC(c3cccc(F)c3)=NO2)CO1 (stereo partly drawn) [I-47, methyl (2R,4R)-4-[[3-(3-fluorophenyl)-5-methyl-4H-isoxazole-5-carbonyl]amino]-2-methoxytetrahydrofuran-2-carboxylate] | 100 | 80 | 100 | 80 | 80 | 100 | 90
